Measurements: ChEMBL document CHEMBL1201862, “PubChem BioAssay data set” (2004)
Values belong to the compound of their own block, whether it stands above or below them. Activity calls are given as the source filed them.

Tests used:
[1] = Luminescence-based dose response cell-based high throughput screening assay for cytotoxic compounds using the IEC-6 intestinal epithelial cell line. [Related pubchem assays: 1858 (Summary AID.), 1825 (Counterscreen.), 1907 (Confirmation screen.)]; type: functional
[2] = molecular target: Prothrombin (Homo sapiens, UniProt P00734); assay: Thrombin 1536 HTS Dose Response Confirmation. [Related pubchem assays: 1046 (Thrombin 1536 HTS; hits were confirmed in this assay)]; type: functional
[3] = molecular target: Potassium voltage-gated channel subfamily KQT member 2 (Rattus norvegicus, UniProt O88943); assay: potentiation of rat KCNQ2 current – cell-based, retigabine-insensitive compounds, dose response (AID 2654); type: functional
Potassium voltage-gated channel subfamily KQT member 2, sequence (O88943 whole entry): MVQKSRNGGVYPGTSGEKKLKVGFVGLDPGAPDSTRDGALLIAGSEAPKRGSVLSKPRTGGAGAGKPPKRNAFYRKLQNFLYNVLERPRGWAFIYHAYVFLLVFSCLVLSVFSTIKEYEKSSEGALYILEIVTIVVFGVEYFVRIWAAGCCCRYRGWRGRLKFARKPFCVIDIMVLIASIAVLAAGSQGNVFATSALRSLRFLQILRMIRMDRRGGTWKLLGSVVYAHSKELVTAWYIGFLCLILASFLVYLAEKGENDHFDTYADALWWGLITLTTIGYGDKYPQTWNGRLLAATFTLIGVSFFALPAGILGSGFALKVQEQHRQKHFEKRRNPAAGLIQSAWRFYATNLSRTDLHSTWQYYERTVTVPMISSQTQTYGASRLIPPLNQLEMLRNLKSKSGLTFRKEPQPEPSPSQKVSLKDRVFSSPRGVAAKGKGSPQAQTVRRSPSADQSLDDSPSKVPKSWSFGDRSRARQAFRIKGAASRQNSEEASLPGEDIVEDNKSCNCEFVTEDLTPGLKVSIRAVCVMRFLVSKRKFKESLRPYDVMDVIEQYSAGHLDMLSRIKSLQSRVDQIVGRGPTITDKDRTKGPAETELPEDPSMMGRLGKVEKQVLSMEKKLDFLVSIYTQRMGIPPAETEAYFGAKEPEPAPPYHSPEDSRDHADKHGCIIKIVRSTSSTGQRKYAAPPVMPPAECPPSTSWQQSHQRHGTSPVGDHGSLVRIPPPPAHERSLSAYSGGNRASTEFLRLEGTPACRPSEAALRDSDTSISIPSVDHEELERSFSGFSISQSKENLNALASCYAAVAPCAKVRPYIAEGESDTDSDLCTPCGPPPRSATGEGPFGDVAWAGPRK

[4] = molecular target: T1, Hexokinase HKDC1 (Homo sapiens, UniProt Q2TB90); assay: inhibition of HKDC1 glucose phosphorylation – biochemical, W721R variant, dose response (AID 504729); type: functional
T1 sequence (Q2TB90 whole entry): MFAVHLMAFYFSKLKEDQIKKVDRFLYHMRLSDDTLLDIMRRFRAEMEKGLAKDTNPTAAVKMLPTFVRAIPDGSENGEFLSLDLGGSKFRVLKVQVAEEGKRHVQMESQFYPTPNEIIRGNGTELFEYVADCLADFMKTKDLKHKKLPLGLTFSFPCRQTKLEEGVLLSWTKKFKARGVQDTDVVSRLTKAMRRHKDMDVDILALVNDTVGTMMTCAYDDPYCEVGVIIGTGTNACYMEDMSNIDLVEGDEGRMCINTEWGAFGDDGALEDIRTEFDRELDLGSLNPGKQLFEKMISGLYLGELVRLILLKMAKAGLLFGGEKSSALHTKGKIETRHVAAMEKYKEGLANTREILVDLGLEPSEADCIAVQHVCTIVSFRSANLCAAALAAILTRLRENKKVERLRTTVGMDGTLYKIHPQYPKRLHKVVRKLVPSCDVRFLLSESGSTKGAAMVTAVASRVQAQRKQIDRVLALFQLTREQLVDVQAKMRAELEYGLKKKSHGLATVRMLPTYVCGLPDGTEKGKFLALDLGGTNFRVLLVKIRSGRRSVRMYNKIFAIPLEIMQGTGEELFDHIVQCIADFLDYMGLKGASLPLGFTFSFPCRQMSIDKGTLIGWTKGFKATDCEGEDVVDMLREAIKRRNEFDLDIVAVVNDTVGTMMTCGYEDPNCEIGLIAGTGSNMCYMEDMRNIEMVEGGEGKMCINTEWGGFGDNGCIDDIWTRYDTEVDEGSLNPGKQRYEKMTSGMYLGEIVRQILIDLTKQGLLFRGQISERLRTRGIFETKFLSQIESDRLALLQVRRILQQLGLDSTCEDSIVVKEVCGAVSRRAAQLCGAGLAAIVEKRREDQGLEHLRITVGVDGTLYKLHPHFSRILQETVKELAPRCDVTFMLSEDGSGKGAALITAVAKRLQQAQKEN

[5] = molecular target: Trypsin (Sus scrofa, UniProt P00761); assay: trypsin protease activity blockade – biochemical, quenched peptide fluorescence, cherry-pick, selectivity assay for Rce1 protease inhibitor project, dose response (AID 488789)
Trypsin, sequence (P00761 whole entry): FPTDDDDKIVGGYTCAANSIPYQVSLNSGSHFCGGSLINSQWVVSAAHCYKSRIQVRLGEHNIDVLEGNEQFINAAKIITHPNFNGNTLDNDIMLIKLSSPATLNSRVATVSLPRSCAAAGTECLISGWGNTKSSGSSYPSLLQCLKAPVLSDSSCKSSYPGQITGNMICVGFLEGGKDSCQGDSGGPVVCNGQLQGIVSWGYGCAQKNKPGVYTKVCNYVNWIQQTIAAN

[6] = HEK-293T cell viability reduction – luminescence, B-cell screen hits, cytotoxicity control for BCR NF-kB inhibitor project, dose response (AID 489021); type: functional, cell-based;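 note: HEK-293T cells carrying an NF-kB luciferase reporter; cells exposed to compound for about 14 hours before viability readout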
[7] = molecular target: T2, Mannose-6-phosphate isomerase (Homo sapiens, UniProt P34949); assay: MPI inhibition at elevated mannose 6-phosphate – biochemical, fluorescence intensity, high mannose 6-phosphate, primary screen (AID 1220)
T2 sequence (P34949 whole entry): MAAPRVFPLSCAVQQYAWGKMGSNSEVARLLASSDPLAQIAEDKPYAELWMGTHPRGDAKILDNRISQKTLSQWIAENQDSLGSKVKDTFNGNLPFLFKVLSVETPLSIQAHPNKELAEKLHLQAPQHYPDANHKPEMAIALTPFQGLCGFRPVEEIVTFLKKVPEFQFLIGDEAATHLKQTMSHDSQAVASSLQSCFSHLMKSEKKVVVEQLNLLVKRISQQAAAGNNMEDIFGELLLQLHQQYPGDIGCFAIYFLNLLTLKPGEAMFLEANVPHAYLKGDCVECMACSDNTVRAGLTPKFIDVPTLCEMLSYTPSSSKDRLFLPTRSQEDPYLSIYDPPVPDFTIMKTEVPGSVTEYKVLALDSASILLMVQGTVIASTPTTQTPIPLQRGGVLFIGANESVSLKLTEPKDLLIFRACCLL

[8] = molecular target: Eukaryotic translation initiation factor 4E (Mus musculus, UniProt P63073); assay: blockers of eIF4G binding by eIF4E – biochemical, TR-FRET, dose response (AID 855); type: functional;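 note: potency for disrupting eIF4E binding to eIF4GI seen as loss of FRET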
Eukaryotic translation initiation factor 4E, sequence (P63073 whole entry, the tested form may be a part): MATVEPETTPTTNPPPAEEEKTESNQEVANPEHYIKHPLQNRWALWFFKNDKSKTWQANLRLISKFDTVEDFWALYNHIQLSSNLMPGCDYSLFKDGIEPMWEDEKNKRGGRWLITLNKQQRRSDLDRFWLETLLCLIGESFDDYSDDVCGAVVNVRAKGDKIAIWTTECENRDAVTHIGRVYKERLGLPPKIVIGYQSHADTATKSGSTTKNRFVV

[9] = molecular target: T3, Carboxy-terminal domain RNA polymerase II polypeptide A small phosphatase 1 (Homo sapiens, UniProt Q9GZU7); assay: CTDSP1 inhibitors, concentration-response, biochemical, absorbance readout, ultra-high-throughput screen actives (AID 540297); type: functional
T3 sequence (Q9GZU7 whole entry): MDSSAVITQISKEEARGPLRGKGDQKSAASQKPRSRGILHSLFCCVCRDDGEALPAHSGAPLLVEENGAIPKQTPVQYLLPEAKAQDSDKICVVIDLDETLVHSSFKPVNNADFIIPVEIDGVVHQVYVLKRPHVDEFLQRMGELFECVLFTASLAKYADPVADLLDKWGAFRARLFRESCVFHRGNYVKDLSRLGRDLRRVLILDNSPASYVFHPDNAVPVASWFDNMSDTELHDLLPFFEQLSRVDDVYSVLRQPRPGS

[10] = test system: BJ; assay: BJ-TERT fibroblast viability loss – cell-based, RAS-independent, luminescence, dose response (AID 1933); type: functional; settings: Homo sapiens
[11] = test system: BJ; assay: cells; type: functional, cell-based; settings: Homo sapiens
[12] = Trypanosoma cruzi growth suppression in host cells – NIH3T3 host cells, beta-gal luminescence, confirmation (AID 2044); type: functional, cell-based;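 note: intracellular parasites grown in NIH/3T3 mouse fibroblasts as host cells; luminescent beta-galactosidase reporter signal from transgenic T. cruzi replicating inside host cells; inhibitors lower the luminescence signal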
[13] = NIH3T3 cell viability loss – ATP luminescence, mouse fibroblasts, counter-screen, dose response (AID 2010); type: functional, cell-based;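 note: cells exposed to compound for about 90 hours before reading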
[14] = test system: BJ; assay: BJ-TERT-LT-ST fibroblast viability loss – cell-based, RAS-independent, luminescence, dose response (AID 1935); type: functional; settings: Homo sapiens;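 note: BJ fibroblasts immortalized with TERT plus LT and ST oncogenes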
[15] = DRD fibroblast viability loss – cell-based, non-viral oncogenic, luminescence, dose response (AID 1934); type: functional; settings: Homo sapiens
[16] = HEK-293T viability loss after treatment – luminescence, T-cell screen hits, cytotoxicity control for TCR NF-kB inhibitor project, dose response (AID 489026); type: functional, cell-based;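 note: cells exposed to compound about 14 hours before the viability readout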
[17] = cells
[18] = molecular target: Cytochrome P450 2D6 (Homo sapiens, UniProt P10635);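 note: CYP2D6 member of a cytochrome P450 panel assay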
Cytochrome P450 2D6, sequence (P10635 whole entry): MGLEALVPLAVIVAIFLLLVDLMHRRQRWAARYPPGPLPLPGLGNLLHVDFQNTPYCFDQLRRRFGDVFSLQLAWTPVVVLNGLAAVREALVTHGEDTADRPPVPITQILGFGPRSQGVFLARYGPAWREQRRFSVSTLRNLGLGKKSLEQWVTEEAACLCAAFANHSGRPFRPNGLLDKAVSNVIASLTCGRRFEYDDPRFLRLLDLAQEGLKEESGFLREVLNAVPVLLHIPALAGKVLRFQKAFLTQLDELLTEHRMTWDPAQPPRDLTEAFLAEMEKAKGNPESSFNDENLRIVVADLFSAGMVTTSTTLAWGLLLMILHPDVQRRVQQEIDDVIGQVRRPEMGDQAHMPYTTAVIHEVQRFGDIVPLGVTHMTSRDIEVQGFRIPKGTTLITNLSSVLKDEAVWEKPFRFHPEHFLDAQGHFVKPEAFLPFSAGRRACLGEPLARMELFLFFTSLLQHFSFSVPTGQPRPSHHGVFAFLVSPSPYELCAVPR

[19] = molecular target: T4, Heat shock factor protein 1 (Mus musculus, UniProt P38532); assay: decrease of HSF1-responsive luciferase luminescence – cell-based, NIH3T3, dose retest, confirmation (AID 2382); type: functional;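 note: NIH3T3 fibroblasts with HSF1-driven luciferase reporter stressed by proteasome inhibitor MG132; luminescence from HSF1-driven luciferase expression after 8 hours of MG132 stress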
T4 sequence (P38532 whole entry): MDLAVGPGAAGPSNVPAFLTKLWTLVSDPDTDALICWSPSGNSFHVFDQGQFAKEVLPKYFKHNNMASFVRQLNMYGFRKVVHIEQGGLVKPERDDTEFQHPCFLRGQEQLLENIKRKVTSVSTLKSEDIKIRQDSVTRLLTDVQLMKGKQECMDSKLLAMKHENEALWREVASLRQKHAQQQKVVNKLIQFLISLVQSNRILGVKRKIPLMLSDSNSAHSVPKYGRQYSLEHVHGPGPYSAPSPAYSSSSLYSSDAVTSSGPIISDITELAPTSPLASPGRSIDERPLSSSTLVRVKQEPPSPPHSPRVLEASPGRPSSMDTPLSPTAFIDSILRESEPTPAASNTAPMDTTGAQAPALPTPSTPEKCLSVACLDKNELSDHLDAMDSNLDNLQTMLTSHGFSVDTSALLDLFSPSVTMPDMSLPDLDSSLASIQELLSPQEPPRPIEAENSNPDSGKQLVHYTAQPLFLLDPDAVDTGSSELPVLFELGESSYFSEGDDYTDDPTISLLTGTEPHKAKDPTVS

[20] = reduced cellular PGC1a acetyl-lysine signal – cell-based, cherry-picked samples, dose response (AID 720514); type: functional;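 note: potency may reflect raised or lowered acetylation signal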
[21] = molecular target: T5, Short transient receptor potential channel 4 (Mus musculus, UniProt Q9QUQ5); assay: block of DAMGO-driven TRPC4 calcium entry – cell-based, HEK293 TRPC4/mu-opioid, Fluo-4 calcium, dose response (AID 434942); type: functional;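 note: potency of inhibitors blocking the TRPC4 calcium response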
T5 sequence (Q9QUQ5 whole entry): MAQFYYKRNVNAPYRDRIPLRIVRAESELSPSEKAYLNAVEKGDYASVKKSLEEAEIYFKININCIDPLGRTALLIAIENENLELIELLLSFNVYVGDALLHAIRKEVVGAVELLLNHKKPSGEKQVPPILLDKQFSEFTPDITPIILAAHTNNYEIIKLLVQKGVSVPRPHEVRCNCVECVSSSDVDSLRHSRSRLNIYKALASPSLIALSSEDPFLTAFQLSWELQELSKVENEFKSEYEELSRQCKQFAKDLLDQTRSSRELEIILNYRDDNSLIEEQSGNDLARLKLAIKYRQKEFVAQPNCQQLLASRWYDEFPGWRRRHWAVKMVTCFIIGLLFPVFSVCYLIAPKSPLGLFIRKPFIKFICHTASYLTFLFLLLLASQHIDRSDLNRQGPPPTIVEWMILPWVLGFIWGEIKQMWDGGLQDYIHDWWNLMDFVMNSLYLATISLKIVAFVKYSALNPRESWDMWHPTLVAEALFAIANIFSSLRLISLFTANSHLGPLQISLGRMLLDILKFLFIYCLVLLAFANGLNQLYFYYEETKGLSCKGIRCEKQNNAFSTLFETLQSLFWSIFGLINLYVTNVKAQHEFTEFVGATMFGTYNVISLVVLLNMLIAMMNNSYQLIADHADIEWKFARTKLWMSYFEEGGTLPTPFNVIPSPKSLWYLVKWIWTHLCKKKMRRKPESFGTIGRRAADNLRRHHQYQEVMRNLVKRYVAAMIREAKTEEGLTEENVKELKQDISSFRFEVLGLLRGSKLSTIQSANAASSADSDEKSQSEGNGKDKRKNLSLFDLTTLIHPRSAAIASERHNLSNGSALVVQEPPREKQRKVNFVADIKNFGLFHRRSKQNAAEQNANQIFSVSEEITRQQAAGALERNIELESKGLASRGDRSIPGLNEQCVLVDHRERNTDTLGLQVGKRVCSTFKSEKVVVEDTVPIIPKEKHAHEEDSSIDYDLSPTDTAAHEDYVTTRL

[22] = molecular target: T5, Short transient receptor potential channel 4; assay: calcium entry via TRPC4 opening agents – cell-based, HEK293 TRPC4/mu-opioid, Fluo-4 calcium, dose response (AID 434937); type: functional
[23] = rise of 2N DNA cells, HeLa – IC50, dose response (AID 1117349); type: functional, cell-based
[24] = rise of 4N DNA cells, HeLa – IC50, dose response (AID 1117351); type: functional, cell-based

- IC50 [2]: > 50 µM (not active)
Structure (SMILES): COc1cccc(-c2nnc(SCC(=O)Nc3ccc4c(c3)OCCO4)n2Cc2ccco2)c1

- EC50 [3]: 4.21 µM (active)
Structure (SMILES): O=C(Nc1cccnc1)Nc1ccc(F)c(Cl)c1

- IC50 [4]: 20.4 µM (inactive)
Structure (SMILES): COc1ccc(OC)c2nc(O)c(CCNC(=O)c3cc4ccccc4o3)cc12

- IC50 [2]: 2.17 µM (active)
Structure (SMILES): CC(=O)c1sc2ccccc2c1OC(=O)c1ccco1

- AC50 [5]: 6.54 µM (active)
Structure (SMILES): O=C(NC1CC1)c1ccc2c(c1)N(Cc1ccccc1)CCS2

- IC50 [2]: > 50 µM (not active)
Structure (SMILES): O=C(COc1ccc(S(=O)(=O)Nc2ccccc2)cc1)N1CCOCC1

- IC50 [7]: > 50 µM (not active)
Structure (SMILES): Cc1cccc(NCc2ccc(O)c3ncccc23)c1

- IC50 [8]: 50 µM (inactive)
- IC50 [9]: 12.5 µM (active)
Structure (SMILES): CN(Cc1ccccc1)C(=O)COC(=O)/C=C/c1ccco1

- IC50 [8]: > 64 µM (inactive)
- AC50 [18]: 15.8 µM (inconclusive)
Structure (SMILES): CC(C)(C)c1[nH]nc2c1C(c1ccc(OC(=O)c3ccco3)cc1)C(C#N)=C(N)O2 (stereo unspecified)

- IC50 [8]: > 64 µM (inactive)
Structure (SMILES): CCSc1ccc2nnc(-c3cccc(F)c3)n2n1

- EC50 [3]: 5.76 µM (active)
Structure (SMILES): O=C(Nc1ccc(F)nc1)Nc1cccc(F)c1

More lines, now with the values behind:

Structure (SMILES): CN1CCC(NCCC(c2ccc(F)cc2)c2ccc(Cl)cc2)CC1 (stereo unspecified)
- IC50 [1]: 5.34 µM (active)

Structure (SMILES): O=C(NNC(=O)C12CC3CC(CC(C3)C1)C2)c1cccc(O)c1
- IC50 [6]: > 80 µM (inactive)

Structure (SMILES): COc1ccc(C(=O)Nc2nnc(SCC(=O)Nc3ccc(NC(C)=O)cc3)s2)c(OC)c1
- IC50 [6]: > 80 µM (inactive)

Structure (SMILES): CC(=O)O[C@@]12CO[C@@H]1C[C@@H](O)[C@@]1(C)C(=O)[C@H](O)C3=C(C)[C@@H](OC(=O)[C@H](O)[C@@H](NC(=O)c4ccccc4)c4ccccc4)C[C@@](O)([C@@H](OC(=O)c4ccccc4)C12)C3(C)C (stereo partly specified)
- EC50 [10]: 0.645 µM (active)
- EC50 [11]: 44.8 µM (inconclusive)
- EC50 [12]: < 0.1 µM (active)
- IC50 [1]: 0.157 µM (active)
- EC50 [13]: 5.97 µM (active)
- EC50 [14]: 0.434 µM (inconclusive)
- EC50 [15]: 0.567 µM (active)
- IC50 [16]: > 80 µM (inactive)
- EC50 [17]: 0.022 µM (active)

Structure (SMILES): Cc1ccc(/C=C2\SC(=S)N(CCCC(=O)Nc3cccnc3)C2=O)cc1
- EC50 [19]: 0.255 µM (active)
- IC50 [6]: > 80 µM (inactive)

Structure (SMILES): COC1=CC(=O)C(OC)=C(OC)C1=O
- IC50 [4]: 2.56 µM (active)

Structure (SMILES): N#Cc1cccc(-c2ccc([C@@H]3[C@@H]4CN(Cc5ccccc5F)C[C@H]3N4)cc2)c1
- AC50 [20]: 8.09 µM (active)

Structure (SMILES): Cc1ccccc1Nc1nc(NCc2ccco2)c2ccccc2n1
- EC50 [12]: < 0.1 µM (active)
- EC50 [13]: > 60 µM (not active)
- EC50 [21]: 1.06 µM (active)
- EC50 [22]: 5.96 µM (active)
- EC50 [17]: 0.023 µM (active)

Structure (SMILES): CCCCCCCCCCCCCCCCNc1ccc(C(=O)O)cc1 [CETABEN]
- IC50 [23]: > 10 µM (inactive)
- IC50 [24]: > 10 µM (inactive)
